Test results from patent US7618957B2, “Perfluoroalkyl-containing complexes, process for their production as well as their use” (Bayer Schering Pharma Aktiengesellschaft, priority 2005, dated 2009).
Blank lines part the entries; values can stand above or below the compound they belong to.

Legend:
mice = experiment: Acute toxicity after one-time intravenous administration in mice (preliminary); format: in vivo; conditions: one-time i.v., observation period of 7 days
Method: After intravenous administration of the gadolinium complexes of the title substances of Examples 1d, 5c, 14c, 15c in mice (n=3; rate of injection: 2 ml/min), the acute systemic compatibility (LD50) was determined preliminarily. In each case, several dosages with an observation period of 7 days were examined. The acute toxicities that are to be expected can be seen in Table 1.

[1] = Plasma kinetics after intravenous administration in rats (ICP-AES); format: in vivo; conditions: 50 μmol of total gadolinium/kg i.v.; for Elimination Half-Life of Blood: calculated with WinNonlin from plasma concentrations
Method: After intravenous administration of 50 μmol of total gadolinium/kg of body weight of the gadolinium complexes of the title substances of Examples 1d, 5c, 14c, 15c in rats (n=3), blood samples were taken via a catheter in the common carotid artery at different points in time ([…].), the metal content was determined by means of atom emission spectrometry (ICP-AES) and converted to plasma values via a conversion factor (0.625). The elimination half-life was calculated by means of special software (WinNonlin) from the plasma concentrations.

[2] = system: arteriosclerotic plaque of WHHL rabbits; experiment: MRT visualization of arteriosclerotic plaque after intravenous administration; format: in vivo, Watanabe rabbits; conditions: 50 μmol of Gd/kg i.v., 6 or 24 hours after administration
Method: The pictures of FIG. 3 show MR images of the aorta 6 or 24 hours after intravenous administration of 50 μmol of Gd/kg of body weight of the title substances from Example 1d) and Example 14c in Watanabe rabbits (WHHL rabbits; genetically-induced arteriosclerosis) and in control animals without arteriosclerosis (white New Zealanders). […] The localization of the plaque, especially in the aortic arch as well as in the vascular passages, was confirmed by means of Sudan-3 staining. With this test, the suitability of the compounds according to the invention as markers for arteriosclerotic plaque could be shown.

[3] = Relaxivity (T1 and T2 relaxation times) in water, NMR pulse spectrometer Minispec PC 20; format: physicochemical; conditions: 40° C., 0.47 T
Method: (§1) The T1 and T2 relaxation times of water and plasma (bovine) with increasing concentrations of the gadolinium complexes of the title substances of Examples 1d, 5c, 14c, 15c contained therein were determined at 40° C. with use of an NMR pulse spectrometer (Minispec PC 20) at 0.47 T. The results are set forth in Table 1.

[4] = Relaxivity (T1 and T2 relaxation times) in plasma (bovine), NMR pulse spectrometer Minispec PC 20; format: physicochemical; conditions: 40° C., 0.47 T
Method: as §1

[5] = Excretion after intravenous administration in rats (ICP-AES); format: in vivo; conditions: 50 μmol of total gadolinium/kg i.v., 14 days after administration
Method: After intravenous administration of 50 μmol of total gadolinium/kg of body weight of the gadolinium complexes of the title substances of Examples 1d, 5c, 14c, 15c in rats (n=3), the metal content was determined in fractions up to 14 days after administration by means of atom emission spectrometry (ICP-AES) in the excretion media of urine and feces, as well as in the body (the rest of the body).

[6] = system: VX2-tumor-carrying rabbits; experiment: MRT visualization of lymph node metastases and primary tumors in VX2-tumor-carrying rabbits; format: in vivo; conditions: rabbits with i.m. implanted VX2 tumors, 50 μmol of Gd/kg i.v.
Method: The pictures of FIGS. 1 and 2 show MR images of iliac lymph nodes precontrast as well as up to 24 hours after intravenous administration of 50 μmol of Gd/kg of body weight of the title substance of Example 1d) in rabbits with i.m. implanted VX2 tumors. […] Zones where there was no signal rise within the lymph node were diagnosed as metastases and confirmed histologically (H/E staining of the lymph node sections) (FIG. 1).
At later times (24 hours p.i.), this enhancement also propagates toward the center of the tumor.

popliteal lymph nodes = experiment: MRT visualization of lymph nodes after intravenous administration in rats; format: in vivo; conditions: 50 μmol of Gd/kg i.v., up to 60 minutes p.i.
Source text: By way of example, the pictures show MR images of popliteal lymph nodes at different points in time after intravenous administration of 50 μmol of Gd/kg of body weight of the title substance from Example 5c), title substance from Example 14c) and title substance from Example 15c) in rats.

[7] = system: inflammatory muscle lesions and necrotic areas; experiment: MRT visualization of inflammatory lesions and necrotic areas in rats; format: in vivo; conditions: Rose Bengal/xenon lamp induced lesion, 50 μmol of Gd/kg i.v.
Method: By way of example, the pictures of FIG. 4 show MR images of inflammatory muscle lesions as well as necrotic areas at different points in time after intravenous administration of 50 μmol of Gd/kg of body weight of the title substance of Example 14c in rats. The inflammation/necrosis was induced by intravenous administration of Rose Bengal (20 mg/kg; 24 hours before the administration of contrast medium) and subsequent 20-minute irradiation with a xenon lamp.

SMILES: CC(C(=O)NCC(=O)NCCN(CCC(F)(F)C(F)(F)C(F)(F)C(F)(F)C(F)(F)C(F)(F)C(F)(F)C(F)(F)F)C(=O)CO[C@H]1O[C@H](CO)[C@@H](O)[C@H](O)[C@@H]1O)N1CCN(CC(=O)[O-])CCN(CC(=O)[O-])CCN(CC(=O)[O-])CC1.[Gd+3] (stereo partly drawn) [Example 1, N-{[1,4,7-Tris-(carboxylatomethyl)-1,4,7,10-tetracyclododecane-10-N-(pentanoyl-3-aza-4-oxo-5-methyl-5-yl)]-2-aminoethyl}-N-(1H,1H,2H,2H-perfluorodecyl)-2-(1-O-α-d-mannopyranosyl)-acetamide, Gd Complex]
LD50 Mouse (mice): >10 mmol/kg | Gd Content of Blood 24 Hours p.i. [1]: 0.7% | Elimination Half-Life of Blood [1]: 4.8 h | signal rise in the arteriosclerotic plaque, T1-weighted inversion-recovery MR images of the aorta [2]: strong signal rise | Relaxivity R1(w) = R1-relaxivity in water [3]: R1(w): 22.7 1/(mmol * s) | Relaxivity R1(p) = R1-relaxivity in plasma [4]: R1(p): 25.8 1/(mmol * s) | Body Retention 14 days [5]: 0.0% | signal rise in healthy lymph node tissue (iliac lymph nodes), T1-weighted turbo-spin-echo MR images ([6]; 15 to 60 minutes p.i.): strong signal rise | enhancement in the primary tumor, MR images ([6]; immediately after administration): clear enhancement

Relaxivity R1(w) = R1-relaxivity in water [3]: R1(w): 18.9 1/(mmol * s) | Relaxivity R1(p) = R1-relaxivity in plasma [4]: R1(p): 24.8 1/(mmol * s)
SMILES: COCCOCCOCC(=O)N(CCNC(=O)CNC(=O)C(C)N1CCN(CC(=O)[O-])CCN(CC(=O)[O-])CCN(CC(=O)[O-])CC1)CCC(F)(F)C(F)(F)C(F)(F)C(F)(F)C(F)(F)C(F)(F)C(F)(F)C(F)(F)F.[Gd+3] (centres unmarked) [Example 5, N-{[1,4,7-Tris-(carboxylatomethyl)-1,4,7,10-tetraazacyclododecane-10-N-(pentanoyl-3-aza-4-oxo-5-methyl-5-yl)]-2-aminoethyl}-N-(1H,1H,2H,2H-perfluorodecyl)-2-[2-(2-methoxyethoxy)-ethoxy]-acetamide, Gd Complex]
Gd Content of Blood 24 Hours p.i. [1]: 0.0% | Elimination Half-Life of Blood [1]: 0.8 hour hours | signal rise in the functional lymph node tissue (popliteal lymph nodes), T1-weighted turbo-spin-echo MR images (popliteal lymph nodes): strong signal rise | Body Retention 14 days [5]: 0.0%

SMILES: COCCOCC(=O)N(CCNC(=O)CNC(=O)C(C)N1CCN(CC(=O)[O-])CCN(CC(=O)[O-])CCN(CC(=O)[O-])CC1)CCC(F)(F)C(F)(F)C(F)(F)C(F)(F)C(F)(F)C(F)(F)C(F)(F)C(F)(F)F.[Gd+3] (centres unmarked) [Example 15, N-{[1,4,7-Tris-(carboxylatomethyl)-1,4,7,10-tetraazacyclododecane-10-N-(pentanoyl-3-aza-4-oxo-5-methyl-5-yl)]-2-aminoethyl}-N-(1H,1H,2H,2H-perfluorodecyl)-2-(2-methoxyethoxy)-acetamide, Gd Complex]
LD50 Mouse (mice): >10 mmol/kg | Gd Content of Blood 24 Hours p.i. [1]: 0.2% | Elimination Half-Life of Blood [1]: 4.8 h | Relaxivity R1(w) = R1-relaxivity in water [3]: R1(w): 17.2 1/(mmol * s) | signal rise in the functional lymph node tissue (popliteal lymph nodes), T1-weighted turbo-spin-echo MR images (popliteal lymph nodes): strong signal rise | Relaxivity R1(p) = R1-relaxivity in plasma [4]: R1(p): 24.6 1/(mmol * s) | Body Retention 14 days [5]: 0.0%

SMILES: COCCOCCOCCOCC(=O)N(CCNC(=O)CNC(=O)C(C)N1CCN(CC(=O)[O-])CCN(CC(=O)[O-])CCN(CC(=O)[O-])CC1)CCC(F)(F)C(F)(F)C(F)(F)C(F)(F)C(F)(F)C(F)(F)C(F)(F)C(F)(F)F.[Gd+3] (centres unmarked) [Example 14, N-{[1,4,7-Tris-(carboxylatomethyl)-1,4,7,10-tetraazacyclododecane-10-N-(pentanoyl-3-aza-4-oxo-5-methyl-5-yl)]-2-aminoethyl}-N-(1H,1H,2H,2H-perfluorodecyl)-2-{-2-[2-(2-methoxyethoxy)-ethoxy]-ethoxy}-acetamide, Gd Complex]
LD50 Mouse (mice): 7.5 mmol/kg | Gd Content of Blood 24 Hours p.i. [1]: 0.0% | Elimination Half-Life of Blood [1]: 1.1 h | signal rise in the arteriosclerotic plaque, T1-weighted inversion-recovery MR images of the aorta [2]: strong signal rise | signal rise in the central necrosis, T1-weighted turbo-spin-echo MR images ([7]; 24 hours p.i.): delayed signal rise | signal rise in the inflammatorily altered tissue, T1-weighted turbo-spin-echo MR images ([7]; up to 60 minutes p.i.): strong signal rise | Relaxivity R1(w) = R1-relaxivity in water [3]: R1(w): 18.6 1/(mmol * s) | signal rise in the functional lymph node tissue (popliteal lymph nodes), T1-weighted turbo-spin-echo MR images (popliteal lymph nodes): strong signal rise | Relaxivity R1(p) = R1-relaxivity in plasma [4]: R1(p): 25.5 1/(mmol * s) | Body Retention 14 days [5]: 0.0%
